Like-named read-outs stand apart in the source and are kept apart here.
Assays:
[1] = molecular target: T1, human calcium-sensing receptor (CaSR) (Homo sapiens, UniProt P41180); assay: In vitro cell assay in HEK-293 expressing the human calcium-sensing receptor (IP1 production); format: cell-based
T1 construct: expressed in transfected cells; host or cells: HEK 293T cells, transiently transfected (lipofectamine 2000); in some cases HEK293 cells stably transfected
T1 sequence (P41180 20-1078): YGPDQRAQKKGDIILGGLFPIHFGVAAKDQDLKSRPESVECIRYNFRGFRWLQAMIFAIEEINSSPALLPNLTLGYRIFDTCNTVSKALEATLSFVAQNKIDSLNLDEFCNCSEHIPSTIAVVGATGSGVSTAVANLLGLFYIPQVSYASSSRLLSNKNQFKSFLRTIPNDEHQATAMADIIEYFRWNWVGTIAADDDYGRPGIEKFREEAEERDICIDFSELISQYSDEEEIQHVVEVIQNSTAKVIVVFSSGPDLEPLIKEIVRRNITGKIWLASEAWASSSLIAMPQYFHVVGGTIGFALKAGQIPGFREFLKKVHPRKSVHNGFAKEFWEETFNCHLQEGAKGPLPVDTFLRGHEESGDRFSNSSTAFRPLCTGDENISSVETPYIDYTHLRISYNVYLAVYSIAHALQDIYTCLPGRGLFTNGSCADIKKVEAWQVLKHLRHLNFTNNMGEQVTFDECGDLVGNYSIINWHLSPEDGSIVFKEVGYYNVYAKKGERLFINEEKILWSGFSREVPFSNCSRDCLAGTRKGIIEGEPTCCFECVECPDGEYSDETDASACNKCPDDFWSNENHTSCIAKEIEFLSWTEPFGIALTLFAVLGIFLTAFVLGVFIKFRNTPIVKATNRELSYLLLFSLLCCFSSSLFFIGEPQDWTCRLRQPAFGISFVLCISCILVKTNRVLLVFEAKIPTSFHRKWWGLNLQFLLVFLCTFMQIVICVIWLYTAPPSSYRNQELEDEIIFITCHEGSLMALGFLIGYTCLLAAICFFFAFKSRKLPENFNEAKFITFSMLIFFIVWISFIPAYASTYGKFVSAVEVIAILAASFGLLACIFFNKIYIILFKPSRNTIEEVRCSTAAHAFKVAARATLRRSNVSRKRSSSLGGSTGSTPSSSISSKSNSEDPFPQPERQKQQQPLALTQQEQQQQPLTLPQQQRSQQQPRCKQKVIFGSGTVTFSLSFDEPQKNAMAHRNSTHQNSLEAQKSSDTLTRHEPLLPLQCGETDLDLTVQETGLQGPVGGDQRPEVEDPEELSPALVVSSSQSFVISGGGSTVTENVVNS
How it was run: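 HEK293 cells transfected with human CaSR exposed to peptides at eight concentrations in duplicate (top 1 mM or 300 μM, ½-log dilutions) at 37 °C for 1.5 h.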

plasma PTH = assay: 1K1C rat model of acute renal insufficiency, plasma PTH after dosing; format: in vivo; details: 1K1C rats
Text: A rat model of acute renal insufficiency (also referred to as the 1K1C model) was developed to simulate the pathology of SHPT associated with end stage renal disease. […] The development of this model allowed for the further characterization of described compounds in the context of a subject with renal dysfunction and elevated PTH. Typical baseline PTH levels in this model averaged ˜450 pg/mL.
The ensuing ischemia/reperfusion (I/R) damage to the remaining kidney results in significant necrosis and renal failure. Serum creatinine levels were elevated for over 24-48 hours following I/R insult (data not shown). […] By 48 hours post-I/R, plasma PTH levels were elevated to ˜450 pg/mL (˜5 fold increase) and in some instances reach as high as ˜1200 pg/mL. This reproducible increase in serum creatinine and PTH provided a robust model that mimics the physiology seen ESRD patients.
The protocol used in this study is as follows. Male Sprague Dawley rats were purchased from Charles River Laboratories (Hollister, Calif.; requested purchase weight 250-275 g). […] Animals were maintained in a temperature-controlled environment with a constant 12 hours light/12 hours dark cycle and free access to food and water at all times. All experimental procedures with animals were performed according to IACUC guidelines.
General anesthesia was induced and maintained by intraperitoneal (IP) injection of sodium pentobarbital (5.2%, 0.4 mL/rat). For animals that received 45 minutes of renal ischemia an additional IP injection of sodium pentobarbital (5.2%, 0.1 mL/rat) was given to maintain the anesthetic plane. Blood sampling for PTH measurements following administration of compounds in normal rats was done under continuous isoflurane anesthesia.
For model development studies, the left femoral vein was cannulated with a PE-10 tube for blood drawing. Both kidneys were exposed via a laparotomy. A right nephrectomy was performed after the right renal pedicle and ureter were ligated with double 2-0 silk sutures. After confirmation of non-bleeding in the right pedicle, the left renal artery was carefully dissected and clamped with a micro vascular clip to induce left renal global ischemia. Renal ischemia was confirmed by observation of a global white-grey color change (blanching). The abdominal incision was temporarily covered with gauze to help maintain the temperature of the abdominal organs. After 45 minutes, the designated period of ischemia, the clip was removed and left renal artery flow was considered restored upon observation of a global restoration of red color. The abdominal incision was closed in layers with 2-0 silk sutures. The animal was then recovered from anesthesia. Physiological parameters including body temperature (36-37.5° C.) and body weight were measured throughout the procedure. Body temperature was monitored and maintained using a heat pad rectal probe feedback system.
Approximately 48 hours after the 1K1C surgery (I/R injury), animals were dosed with various compounds to measure effects on plasma PTH and calcium. In most cases, test articles were administered by IV infusion (infusion time 5, 10 or 30 minutes) although in some studies compounds were administered by IV bolus or subcutaneous (SC) bolus injection. For drug administration and blood draws, animals were anesthetized with isoflurane.

[2] = Table 5, IP1 production in HEK293 cells expressing human CaSR, eight concentrations in duplicate, read-out: EC50 in CaSR in vitro assay
[3] = 3 mg/kg 30-minute IV infusion, FIG. 1

SMILES	EC50 ([1]; Table 1, IP1 in HEK293 cells expressing human CaSR, read-out: In vitro EC50)	EC50 [1, 2]	PTH reduction from baseline 16 hours after dosing (plasma PTH; 1 mg/kg 30-minute IV infusion)	initial fall of PTH levels from baseline (plasma PTH; 1 mg/kg 30-minute IV infusion)	initial drop of PTH, level as % of baseline (plasma PTH; 1 mg/kg SC bolus)	duration of reduced plasma PTH levels (plasma PTH; 1 mg/kg, SC bolus or 30-minute IV infusion (both routes))	reduced PTH levels from baseline twenty-four hours after dosing (plasma PTH; 1 mg/kg, either route (SC bolus or IV infusion))	PTH-lowering efficacy and duration of action (plasma PTH; [3])	mean PTH reduction at the 24 hour time point (plasma PTH; [3])	PTH-lowering activity (plasma PTH; 1 mg/kg 30-minute IV infusion, over 24 hours, FIG. 9)
CC(=O)N[C@H](CS)C(=O)N[C@H](CCCNC(=N)N)C(=O)N[C@H](CCCNC(=N)N)C(=O)N[C@H](CCCNC(=N)N)C(=O)N[C@H](CCCNC(=N)N)C(=O)N[C@H](CCCNC(=N)N)C(=O)N[C@H](CCCNC(=N)N)C(N)=O [SEQ ID NO: 6, Ac-crrrrrr-NH2]	500 nM	500 nM	~80%	80-90%	~40%	over 24 hours	40-60%	increased efficacy as well as the duration of action	~40%	
CC(=O)N[C@H](CS)C(=O)N[C@H](C)C(=O)N[C@H](CCCNC(=N)N)C(=O)N[C@H](CCCNC(=N)N)C(=O)N[C@H](CCCNC(=N)N)C(=O)N[C@H](C)C(=O)N[C@H](CCCNC(=N)N)C(N)=O [SEQ ID NO: 26, Ac-carrrar-NH2]		1600 nM								activity that is equivalent to Ac-crrrrrr-NH2
